According to patent US10385065B2, “Antibacterial compounds” (priority 2014, dated 2019):
≈ marks a conversion by molar mass, not a printed value. Read-outs that look alike come from different tables or passages of the source.

How the values were obtained:
Assay type in all cases: cell-based
[1] = system: Staphylococcus aureus ATCC 29213; assay: MIC, broth microdilution, S. aureus ATCC 29213
[2] = system: Escherichia coli ATCC 25922; assay: MIC, broth microdilution, E. coli ATCC 25922; conditions: ATCC25922, Table 1, wild type strain
[3] = system: S. aureus NRS482 MRSA FQ resistant; assay: MIC, S. aureus NRS482; conditions: Staphylococcus aureus; Table 2
[4] = system: S. aureus (MRSA) ATCC 43300; assay: MIC, S. aureus ATCC 43300; conditions: Staphylococcus aureus; Table 2; read-out: MIC S. aureus (MRSA) ATCC 43300 Heterogeneous MRSA strain
S. aureus NRS1 MRSA = assay: MIC, S. aureus NRS1; conditions: Staphylococcus aureus; Table 2; read-out: MIC S. aureus NRS1 MRSA AMG & TET resistant
[5] = system: S. aureus NRS127 MRSA LZD resistant; assay: MIC, S. aureus NRS127; conditions: Staphylococcus aureus; Table 2
[6] = system: S. aureus VRS1 MRSA VAN resistant; assay: MIC, S. aureus VRS1; conditions: Staphylococcus aureus, Table 2
[7] = system: Enterococcus faecium ATCC 19434; assay: MIC, E. faecium ATCC 19434; conditions: ATCC19434, Table 2
[8] = system: Haemophilus influenzae ATCC 49247; assay: MIC, H. influenzae ATCC 49247; conditions: ATCC49247, Table 4
[9] = system: S. aureus SACPX1-SP25 MSSA - FQ resistant; assay: microbe, parasite or virus in culture; conditions: Staphylococcus aureus, ATCC 29213 / MSSA, read-out: MIC S. aureus SACPX1-SP25 MSSA - FQ resistant (isogenic mutant of ATCC 29213)
[10] = system: human hepatic cell line (HepG2 ATCC HB-8065); assay: Human cell viability assay (CellTiter-Glo), HepG2; conditions: HepG2, 24 h incubation, tested over 1-128 μg/mL, read-out: IC50 values against HepG2
Experimental: Compounds are assessed for potential non-specific cytotoxic effects against a human hepatic cell line (HepG2 ATCC HB-8065). HepG2 cells are seeded at 20,000 cells/well in 96-well microtitre plates in minimal essential medium (MEM) supplemented with a final concentration of 10% FBS and 1 mM sodium pyruvate. After 24 h compound dilutions are prepared in Dulbecco's minimum essential media (DMEM) supplemented with final concentrations of 0.001% FBS, 0.3% bovine albumin and 0.02% HEPES and added to cells. Compounds are tested in two-fold serial dilutions over a final concentration range of 1-128 μg/mL in a final DMSO concentration of 1% vol/vol. Chlorpromazine is used as a positive control. Cells are incubated with compound at 37° C. and 5% CO2 for a further 24 h, after which time the CellTiter-Glo reagent (Promega) is added. Luminescence is measured on a BMG Omega plate reader. Data are analysed using GraphPad Prism software to determine the concentration of compound that inhibits cell viability by fifty percent (IC50).

[11] = ATCC29213, Table 1, wild type strain, read-out: MIC S. aureus ATCC 29213
[12] = ATCC 29213 / MSSA, Table 2, read-out: MIC S. aureus (MSSA) ATCC 29213 CLSI control strain

| Structure (SMILES) | MIC [1, 11] [µg/mL] | MIC [1, 12] [µg/mL] | MIC [2] [µg/mL] | MIC [3] [µg/mL] | MIC [4] [µg/mL] | MIC (S. aureus NRS1 MRSA) [µg/mL] | MIC [5] [µg/mL] | MIC [6] [µg/mL] | MIC [7] [µg/mL] | MIC [8] [µg/mL] | MIC [9] [µg/mL] | IC50 [10] [µg/mL] |
| --- | --- | --- | --- | --- | --- | --- | --- | --- | --- | --- | --- | --- |
| Cc1nc2c(=O)n(C3CC3)c3cc(-c4ccc(CN)c(F)c4)c(F)cc3c2o1 [Compound 76, 7-[4-(aminomethyl)-3-fluoro-phenyl]-5-cyclopropyl-8-fluoro-2-methyl-oxazolo[4,5-c]quinolin-4-one] | < 1 | < 1 | 1 to 10 (≈ 2.62 to 26.2 µM) | 1 to 10 (≈ 2.62 to 26.2 µM) | < 1 | 1 to 10 (≈ 2.62 to 26.2 µM) | 1 to 10 (≈ 2.62 to 26.2 µM) | 10 to 100 (≈ 26.2 to 262 µM) | 10 to 100 (≈ 26.2 to 262 µM) | 1 to 10 (≈ 2.62 to 26.2 µM) | – | – |
| CCn1c(=O)c2ncoc2c2ccc(-c3cc(F)c(N)cc3F)c(C)c21 [Compound 2, 7-(4-amino-2,5-difluoro-phenyl)-5-ethyl-6-methyl-oxazolo[4,5-c]quinolin-4-one] | 1 to 10 (≈ 2.81 to 28.1 µM) | 1 to 10 (≈ 2.81 to 28.1 µM) | > 100 | 1 to 10 (≈ 2.81 to 28.1 µM) | – | – | – | – | > 100 | 10 to 100 (≈ 28.1 to 281 µM) | 1 to 10 (≈ 2.81 to 28.1 µM) | 10 to 100 (≈ 28.1 to 281 µM) |
| Cc1nc2c(=O)n(C3CC3)c3cc(N4CC[C@H](CN)C4)c(F)cc3c2o1 [Compound 52, 7-[(3R)-3-(aminomethyl)pyrrolidin-1-yl]-5-cyclopropyl-8-fluoro-2-methyl-oxazolo[4,5-c]quinolin-4-one] | 1 to 10 (≈ 2.81 to 28.1 µM) | 1 to 10 (≈ 2.81 to 28.1 µM) | 1 to 10 (≈ 2.81 to 28.1 µM) | 1 to 10 (≈ 2.81 to 28.1 µM) | < 1 | 1 to 10 (≈ 2.81 to 28.1 µM) | 1 to 10 (≈ 2.81 to 28.1 µM) | 1 to 10 (≈ 2.81 to 28.1 µM) | 10 to 100 (≈ 28.1 to 281 µM) | 1 to 10 (≈ 2.81 to 28.1 µM) | 1 to 10 (≈ 2.81 to 28.1 µM) | 10 to 100 (≈ 28.1 to 281 µM) |
| Cc1c(-c2ccc3[nH]cnc3c2)ccc2c3ocnc3c(=O)n(C3CC3)c12 [Compound 15, 7-(1H-benzimidazol-5-yl)-5-cyclopropyl-6-methyl-oxazolo[4,5-c]quinolin-4-one] | < 1 | < 1 | 10 to 100 (≈ 28.1 to 281 µM) | < 1 | – | – | < 1 | – | – | 1 to 10 (≈ 2.81 to 28.1 µM) | – | – |
| Cc1c(-c2cc(F)c(N)cc2F)ccc2c3oc(CN(C)C)nc3c(=O)n(C3CC3)c12 [Compound 101, 7-(4-amino-2,5-difluoro-phenyl)-5-cyclopropyl-2-[(dimethylamino)methyl]-6-methyl-oxazolo[4,5-c]quinolin-4-one] | < 1 | < 1 | 10 to 100 (≈ 23.6 to 236 µM) | 1 to 10 (≈ 2.36 to 23.6 µM) | – | – | – | – | – | 1 to 10 (≈ 2.36 to 23.6 µM) | – | 10 to 100 (≈ 23.6 to 236 µM) |
| CCOC(=O)CNC(=O)c1ccc(-c2ccc3c4ocnc4c(=O)n(C4CC4)c3c2C)cc1 [Compound 30, ethyl-2-[{4-(5-cyclopropyl-6-methyl-4-oxo-oxazolo[4,5-c]quinolin-7-yl)benzoyl}amino]acetate] | 1 to 10 (≈ 2.24 to 22.4 µM) | 1 to 10 (≈ 2.24 to 22.4 µM) | > 100 | 1 to 10 (≈ 2.24 to 22.4 µM) | 1 to 10 (≈ 2.24 to 22.4 µM) | 1 to 10 (≈ 2.24 to 22.4 µM) | 1 to 10 (≈ 2.24 to 22.4 µM) | 1 to 10 (≈ 2.24 to 22.4 µM) | > 100 | 1 to 10 (≈ 2.24 to 22.4 µM) | – | 10 to 100 (≈ 22.4 to 224 µM) |
| Cc1nc2c(=O)n(C3CC3)c3cc(N4CCC(N)CC4)c(F)cc3c2o1 [Compound 49, 7-(4-amino-1-piperidyl)-5-cyclopropyl-8-fluoro-2-methyl-oxazolo[4,5-c]quinolin-4-one] | 1 to 10 (≈ 2.81 to 28.1 µM) | 1 to 10 (≈ 2.81 to 28.1 µM) | 1 to 10 (≈ 2.81 to 28.1 µM) | 10 to 100 (≈ 28.1 to 281 µM) | 1 to 10 (≈ 2.81 to 28.1 µM) | 10 to 100 (≈ 28.1 to 281 µM) | 10 to 100 (≈ 28.1 to 281 µM) | > 100 | 10 to 100 (≈ 28.1 to 281 µM) | 1 to 10 (≈ 2.81 to 28.1 µM) | – | 10 to 100 (≈ 28.1 to 281 µM) |
| Cc1c(-c2ccc(C(=O)NCC(=O)O)cc2)ccc2c3ocnc3c(=O)n(C3CC3)c12 [Compound 31, 2-[{4-(5-cyclopropyl-6-methyl-4-oxo-oxazolo[4,5-c]quinolin-7-yl)benzoyl}amino]acetic acid] | > 100 | > 100 | > 100 | > 100 | – | – | – | – | – | > 100 | – | – |
